Laboratory results reported in patent publication US10577349B2 (Sanford Burnham Prebys Medical Discovery Institute, priority 2015, dated 2020).

How the values were obtained:
A375 = test: 48 h Cytotoxicity A375; format: cell-based; conditions: Homo sapiens, A-375
[1] = target: EmCV Cap-dependent translation; test: In vitro translation assay, FF-EmCV-Ren construct, cap-dependent (FF luciferase); format: biochemical, rabbit reticulocyte lysates
Description: (§1) The bicistronic dual-reporter constructs that contain the firefly luciferase (FF) sequence, followed by the (encephalomyocarditis virus) EmCV and Hepatitis C virus (HCV) IRES, respectively, and the Renilla reniformis (Ren) luciferase sequence, has been previously described (Bordeleau Me., et al. Functional characterization of IRESes by an inhibitor of the RNA helicase eIF4A. Nature chemical biology. 2006; 2:213-20). For measurement of translation from the FF-EmCV-Ren and FF-HCV-Ren constructs, rabbit reticulocyte lysates (RRL) (Life Technologies, Carlsbad, Calif., USA) and the Dual-Glo (Promega, Madison, Wis., USA) read-outs were chosen. Two μl rabbit reticulocyte lysates mixed with Translation Mix 20× (-Met) and Translation Mix 20× (-Leu) in a ratio of 1:1 were pre-incubated with test compounds in 1536-well plates for 1 h at room temperature. Then, translation was started by adding 0.1 μg RNA per well and incubated for 2 h at 30° C. After a short chill phase, 2.5 μl Dual-Glo reagent 1 was added to each well and incubated for 10 min before reading the FF luciferase activity with the ViewLux uHTS Microplate Imager (Perkin Elmer, Waltham, Mass., USA). Directly after, 2.5 μl Dual-Glo reagent 2 was dispensed to each well and incubated at room temperature for 10 min before reading the Ren luciferase activity on the ViewLux. To exclude the possibility that test compounds interfere with any of the luciferase activities, a counter assay was performed in which the compounds were added after the completion of the in vitro translation.

[2] = target: EmCV Cap-independent translation; test: In vitro translation assay, FF-EmCV-Ren construct, cap-independent (Ren luciferase); format: biochemical, rabbit reticulocyte lysates
Description: as §1

[3] = target: HCV cap-dependent translation; test: In vitro translation assay, FF-HCV-Ren construct, cap-dependent (FF luciferase); format: biochemical, rabbit reticulocyte lysates
Description: as §1

[4] = target: HCV cap-independent translation; test: In vitro translation assay, FF-HCV-Ren construct, cap-independent (Ren luciferase); format: biochemical, rabbit reticulocyte lysates
Description: as §1

Compound | IC50 (A375) [µM] | IC50 [1] [µM] | IC50 [2] [µM] | IC50 [3] [µM] | IC50 [4] [µM]
Cc1cncc(-c2c(C(=O)/C=C/c3ccccn3)c(=O)[nH]c3ccc(Cl)cc23)c1 [Compound 96, 3-((2E)-3-(2-pyridyl)prop-2-enoyl)-6-chloro-4-(5-methyl(3-pyridyl))hydroquinolin-2-one] | 2 to 10 | 10 to 20 | 2 to 10 | > 20 | 10 to 20
O=C(/C=C/c1ccccn1)c1c(-c2cncc(Br)c2)c2cc(Cl)ccc2[nH]c1=O [Compound 104, 3-((2E)-3-(2-pyridyl)prop-2-enoyl)-4-(5-bromo(3-pyridyl))-6-chlorohydroquinolin-2-one] | 2 to 10 | 2 to 10 | 2 to 10 | 10 to 20 | 2 to 10
COc1cncc(-c2c(C(=O)/C=C/c3ccccn3)c(=O)[nH]c3ccc(Cl)cc23)c1 [Compound 98, 3-((2E)-3-(2-pyridyl)prop-2-enoyl)-6-chloro-4-(5-methoxy(3-pyridyl))hydroquinolin-2-one] | 2 to 10 | 10 to 20 | 10 to 20 | 10 to 20 | 10 to 20
Cc1ccc(-c2c(C(=O)/C=C/c3nc4ccccc4[nH]3)c(=O)[nH]c3ccc(Cl)cc23)cc1 [Compound 4, 3-(3-1H-Benzoimidazol-2-yl-acryloyl)-6-chloro-4-p-tolyl-1H-quinolin-2-one] | 2 to 10 | 2 to 10 | 2 to 10 | 2 to 10 | 2 to 10
CN(C)c1ccc(-c2c(C(=O)/C=C/c3cncc(F)c3)c(=O)[nH]c3ccc(Cl)cc23)cc1 [Compound 109, 3-[(2E)-3-(5-fluoro(3-pyridyl))prop-2-enoyl]-4-[4-(dimethylamino)phenyl]-6-chlorohydroquinolin-2-one] | 2 to 10 | 2 to 10 | 2 to 10 | 2 to 10 | 2 to 10
CCn1c(/C=C/C(=O)c2c(-c3ccccc3)c3cc(Cl)ccc3[nH]c2=O)nc2ccccc21 [Compound 58, 6-Chloro-3-[3-(1-ethyl-1H-benzoimidazol-2-yl)-acryloyl]-4-phenyl-1H-quinolin-2-one] | 2 to 10 | 2 to 10 | 2 to 10 | 2 to 10 | 2 to 10
O=C(/C=C/c1cncc(F)c1)c1c(-c2ccc(Br)cc2)c2cc(Cl)ccc2[nH]c1=O [Compound 91, 3-[(2E)-3-(5-fluoro(3-pyridyl))prop-2-enoyl]-4-(4-bromophenyl)-6-chlorohydroquinolin-2-one] | 2 to 10 | 2 to 10 | 2 to 10 | 2 to 10 | 2 to 10
O=C(/C=C/c1cncc(F)c1)c1c(-c2cncc(F)c2)c2cc(Cl)ccc2[nH]c1=O [Compound 99, 3-[(2E)-3-(5-fluoro(3-pyridyl))prop-2-enoyl]-6-chloro-4-(5-fluoro(3-pyridyl))hydroquinolin-2-one] | 2 to 10 | 10 to 20 | 2 to 10 | 10 to 20 | 2 to 10
O=C(/C=C/c1nc2ccccc2[nH]1)c1c(-c2ccccc2)c2ccncc2[nH]c1=O [Compound 22, 3-(3-1H-Benzoimidazol-2-yl-acryloyl)-4-phenyl-1H-[1,7]naphthyridin-2-one] | > 20 | 10 to 20 | 10 to 20 | 10 to 20 | 10 to 20
O=C(/C=C/c1ccccn1)c1c(-c2cncc(F)c2)c2cc(Cl)ccc2[nH]c1=O [Compound 100, 3-((2E)-3-(2-pyridyl)prop-2-enoyl)-6-chloro-4-(5-fluoro(3-pyridyl))hydroquinolin-2-one] | 2 to 10 | 10 to 20 | 10 to 20 | 10 to 20 | 10 to 20
O=C(/C=C/c1ccccc1)c1c(-c2ccccc2)c2cc([N+](=O)[O-])ccc2[nH]c1=O [Compound 16, 6-Nitro-4-phenyl-3-(3-phenyl-acryloyl)-1H-quinolin-2-one] | 2 to 10 | 2 to 10 | 2 to 10 | 10 to 20 | 2 to 10
O=C(/C=C/c1cccs1)c1c(-c2ccccc2)c2cc(Cl)ccc2[nH]c1=O [Compound 51, 6-Chloro-4-phenyl-3-(3-thiophen-2-yl-acryloyl)-1H-quinolin-2-one] | 2 to 10 | > 20 | > 20 | 10 to 20 | > 20
O=C(CCc1cncc(F)c1)c1c(-c2ccccc2)c2cc(Cl)ccc2[nH]c1=O [Compound 67, 6-Chloro-3-[3-(5-fluoro(3-pyridyl))propanoyl]-4-phenylhydroquinolin-2-one] | > 20 | > 20 | > 20 | > 20 | > 20
COc1ccc(-c2c(C(=O)/C=C/c3nc4ccccc4[nH]3)c(=O)[nH]c3ccc(Cl)cc23)cc1 [Compound 3, 3-(3-1H-Benzoimidazol-2-yl-acryloyl)-6-chloro-4-(4-methoxy-phenyl)-1H-quinolin-2-one] | < 2 | 10 to 20 | > 20 | 10 to 20 | > 20
O=C(/C=C/c1nc2ccccc2[nH]1)c1c(-c2ccc(Cl)cc2)c2cc(Cl)ccc2[nH]c1=O [Compound 5, 3-(3-1H-Benzoimidazol-2-yl-acryloyl)-6-chloro-4-(4-chloro-phenyl)-1H-quinolin-2-one] | < 2 | 2 to 10 | 10 to 20 | 10 to 20 | 10 to 20
N#Cc1ccc(-c2c(C(=O)/C=C/c3cncc(F)c3)c(=O)[nH]c3ccc(Cl)cc23)cc1 [Compound 89] | 2 to 10 | 2 to 10 | 2 to 10 | 2 to 10 | 2 to 10
Cn1c(/C=C/C(=O)c2c(-c3ccccc3)c3cc(Cl)ccc3[nH]c2=O)nc2ccccc21 [Compound 53, 6-Chloro-3-[3-(1-methyl-1H-benzoimidazol-2-yl)-acryloyl]-4-phenyl-1H-quinolin-2-one] | 2 to 10 | 2 to 10 | 2 to 10 | 2 to 10 | 2 to 10
O=C(/C=C/c1nc2ccccc2[nH]1)c1c(-c2ccc(OC(F)(F)F)cc2)c2cc(Cl)ccc2[nH]c1=O [Compound 2, 3-(3-1H-Benzoimidazol-2-yl-acryloyl)-6-chloro-4-(4-trifluoromethoxy-phenyl)-1H-quinolin-2-one] | < 2 | 2 to 10 | 2 to 10 | 2 to 10 | 2 to 10
O=C(/C=C/c1ccncc1)c1c(-c2ccccc2)c2ccncc2[nH]c1=O [Compound 23, 4-Phenyl-3-(3-pyridin-4-yl-acryloyl)-1H-[1,7]naphthyridin-2-one] | < 2 | > 20 | 10 to 20 | > 20 | > 20
Cn1c(/C=C/C(=O)c2c(-c3ccccc3)c3cc(Cl)ccc3n(C)c2=O)nc2ccccc21 [Compound 59, 6-Chloro-1-methyl-3-[3-(1-methyl-1H-benzoimidazol-2-yl)-acryloyl]-4-phenyl-1H-quinolin-2-one] | 2 to 10 | 2 to 10 | 2 to 10 | 2 to 10 | 2 to 10
O=C(/C=C/c1nc2ccccc2[nH]1)c1c(C2CCCCC2)c2cc(Cl)ccc2[nH]c1=O [Compound 11, (E)-3-(3-(1H-benzo[d]imidazol-2-yl)acryloyl)-6-chloro-4-cyclohexylquinolin-2(1H)-one] | < 2 | 2 to 10 | 2 to 10 | 2 to 10 | 2 to 10
O=C(/C=C/c1ccccc1)c1c(-c2cccs2)c2cc(Cl)ccc2[nH]c1=O [Compound 10] | > 20 | 2 to 10 | 2 to 10 | 10 to 20 | 2 to 10
O=C(/C=C/c1nc2ccccc2[nH]1)c1c(-c2ccccc2)c2cnccc2[nH]c1=O [Compound 24, 3-(3-1H-Benzoimidazol-2-yl-acryloyl)-4-phenyl-1H-[1,6]naphthyridin-2-one] | < 2 | 2 to 10 | 2 to 10 | 10 to 20 | 10 to 20
COc1ccc(-c2c(C(=O)/C=C/c3cncc(F)c3)c(=O)[nH]c3ccc(Cl)cc23)cc1 [Compound 79, 3-[(2E)-3-(5-fluoro(3-pyridyl))prop-2-enoyl]-6-chloro-4-(4-methoxyphenyl)hydroquinolin-2-one] | < 2 | 2 to 10 | 2 to 10 | 2 to 10 | 2 to 10
O=C(/C=C/c1nc2ccccc2[nH]1)c1c(-c2ccccc2)c2cc(F)ccc2[nH]c1=O [Compound 20, 3-(3-1H-Benzoimidazol-2-yl-acryoyl)-6-fluoro-4-phenyl-1H-quinolin-2-one] | < 2 | 10 to 20 | > 20 | 10 to 20 | > 20
